Results taken from patent publication US9695219B2, “Polypeptide having antibacterial activity and angiogenesis-inducing activity and wound-healing drug containing said polypeptide” (priority 2009, dated 2017).
≈ marks a conversion by molar mass, not a printed value. Where two headings read alike, the source gives them in different places. Where no end group is shown, it is not given here.

Tests used:
[1] = test system: Pseudomonas aeruginosa (clinical strain 6); experiment: MIC measurement, broth microdilution; type: cell-based; details: Pseudomonas aeruginosa; 37° C. for 20 hours; tested twice, first/second value where not matched
MSSA (clinical strain 2) = experiment: microbe, parasite or virus in culture; type: cell-based, Staphylococcus aureus; details: 37° C. for 20 hours, tested twice, first/second value where not matched
Experimental: (§1) Further, with respect to not only the above-described strains but also various other strains, the “minimum inhibitory concentration (MIC)” was measured as follows. MIC is the lowest concentration of an agent that may inhibit the growth of a bacterium. MIC is used as a parameter for the efficacy of an antibacterial agent, for the strength of bacterial sensitivity, or the like. The bacteria can grow (proliferate) when the concentration is not higher than MIC, and cannot grow when the concentration is higher than MIC. Its measurement is carried out according to a method defined as a standard method by Japanese Society of Chemotherapy or CLINICAL AND LABORATORY […] (CLSI), but, in this Example, its measurement was carried out by a broth microdilution method in accordance with “M100-S17/M7-A7” (Performance Standards for Antimicrobial Susceptibility Testing; Seventeenth Informational Supplement, Vol. 27 No. 1) published by CLSI on January, 2007. That is, sensitivity test of agents was carried out using a microtiter plate or test tubes.
(§2) The bacteria were cultured in liquid media for 4 to 6 hours, and thereafter absorbances at A600 were measured. Bacterial suspensions were diluted with Mueller-Hinton broth (MHB) according to McFarland #0.5. Each strain was added so as to attain about 10^5 CFU/ml (final concentration). Each peptide was prepared to an optional concentration, and the solutions were serially diluted from the concentration. The polypeptide at each concentration stage was added to a microplate or test tubes, and the bacterial suspension was added thereto. Chloramphenicol, amphotericin B, ciprofloxacin, meropenem (MEPM), ciprofloxacin (CPFX), tobramycin (TOB) and oxacillin (OX) were used as positive controls. The plate was incubated at 37° C. for 20 hours, and the lowest concentration where bacterial growth was inhibited was regarded as the minimum inhibitory concentration.

MRSA (clinical strain 2) = experiment: microbe, parasite or virus in culture; type: cell-based, Staphylococcus aureus; details: 37° C. for 20 hours, tested twice, first/second value where not matched
Experimental: as §1, §2

MSSA (clinical strain 1) = experiment: microbe, parasite or virus in culture; type: cell-based, Staphylococcus aureus; details: Staphylococcus aureus, MSSA; 37° C. for 20 hours; tested twice, first/second value where not matched
Experimental: as §1, §2

[2] = test system: Pseudomonas aeruginosa (clinical strain 1); experiment: microbe, parasite or virus in culture; type: cell-based; details: Pseudomonas aeruginosa; 37° C. for 20 hours; tested twice, first/second value where not matched
[3] = test system: Staphylococcus aureus ATCC29213; experiment: Antibacterial activity, ATP assay (BacTiter-Glo); type: cell-based
Experimental: (§3) The antibacterial activity of the polypeptides was measured using an ATP assay method. Using BacTiter-Glo Microbial Cell Viability Assay kit available from PROMEGA, the antibacterial activity of the peptides was evaluated from the viability of bacteria. […] With respect to the strains, Staphylococcus aureus ATCC29213 (S. aureus ATCC29213) as Gram-positive bacteria, or, alternatively, Pseudomonas aeruginosa (P. aeruginosa ATCC27853) as Gram-negative bacteria, was used. The bacteria were cultured in media for 3 to 4 hours, and thereafter absorbances at A600 were measured. Bacterial suspensions were diluted with Mueller-Hinton broth (MHB) according to McFarland #0.5. […] A solution to which the peptides were not added was considered as a negative control, and a solution to which tobramycin (TOB) was added was considered as a positive control. The plate was incubated at 37° C. for 3 hours, and the amount of ATP in the culture media was measured. Relative values were calculated by comparison with the negative control, and these values were regarded as the viability. The antibacterial activity of each of SR-08 and SR-07 polypeptides was measured using an ATP assay method. That is, using BacTiter-Glo Microbial Cell Viability Assay kit available from PROMEGA, the antibacterial activity of the peptides was evaluated from the viability of bacteria. […] As controls, tobramycin (TOB), oxacillin (OX) and meropenem (MEPM) were used at the concentrations as respectively shown in Table 6 below. With respect to the strains, Escherichia coli: ATCC 25922 (Escherichia coli ATCC 25922), Pseudomonas aeruginosa: ATCC 27853 (Pseudomonas aeruginosa ATCC 27853), Staphylococcus aureus: ATCC29213 (Staphylococcus aureus ATCC29213), Klebsiella pneumoniae: JCM 1662 (Klebsiella pneumoniae JCM 1662), enterobacteria (1): […] JCM 1235 (Enterobacter aerogenes JCM 1235), were used. The bacteria were cultured in media for 3 to 4 hours, and thereafter absorbances at A600 were measured. Bacterial suspensions were diluted with Mueller-Hinton broth (MHB) according to McFarland #0.5. […] The plate was incubated at 37° C. for 3 hours, and the amount of ATP in the culture media was measured. Relative values were calculated by comparison with the negative control, and these values were regarded as the viability.

[4] = test system: Pseudomonas aeruginosa ATCC 27853; experiment: Antibacterial activity, ATP assay (BacTiter-Glo); type: cell-based
Experimental: as §3

MRSA (clinical strain 1) = experiment: microbe, parasite or virus in culture; type: cell-based; details: Staphylococcus aureus, 37° C. for 20 hours, tested twice, first/second value where not matched
Experimental: as §1, §2

[5] = test system: Pseudomonas aeruginosa (clinical strain 12); experiment: MIC measurement, broth microdilution; type: cell-based; details: Pseudomonas aeruginosa; 37° C. for 20 hours; tested twice, first/second value where not matched
[6] = test system: Pseudomonas aeruginosa (clinical strain 9); experiment: MIC measurement, broth microdilution; type: cell-based; details: Pseudomonas aeruginosa; 37° C. for 20 hours; tested twice, first/second value where not matched
[7] = test system: Pseudomonas aeruginosa (clinical strain 8); experiment: MIC measurement, broth microdilution; type: cell-based; details: Pseudomonas aeruginosa; 37° C. for 20 hours; tested twice, first/second value where not matched
[8] = test system: Escherichia coli ATCC 25922; experiment: Antibacterial activity, ATP assay (BacTiter-Glo); type: cell-based
Experimental: (§4) The antibacterial activity of each of SR-08 and SR-07 polypeptides was measured using an ATP assay method. That is, using BacTiter-Glo Microbial Cell Viability Assay kit available from PROMEGA, the antibacterial activity of the peptides was evaluated from the viability of bacteria. In other words, ATP amount in viable bacteria in cases where the concentration of the peptides was 10 μg/mL was measured using a microtiter plate or test tubes. As controls, tobramycin (TOB), oxacillin (OX) and meropenem (MEPM) were used at the concentrations as respectively shown in Table 6 below.
(§5) With respect to the strains, Escherichia coli: ATCC 25922 (Escherichia coli ATCC 25922), Pseudomonas aeruginosa: ATCC 27853 (Pseudomonas aeruginosa ATCC 27853), Staphylococcus aureus: ATCC29213 (Staphylococcus aureus ATCC29213), Klebsiella pneumoniae: JCM 1662 (Klebsiella pneumoniae JCM 1662), enterobacteria (1): JCM 1232 (Enterobacter cloacae JCM 1232), and enterobacteria (2): JCM 1235 (Enterobacter aerogenes JCM 1235), were used.
(§6) The bacteria were cultured in media for 3 to 4 hours, and thereafter absorbances at A600 were measured. Bacterial suspensions were diluted with Mueller-Hinton broth (MHB) according to McFarland #0.5. Each strain was added so as to attain about 0.5-1×10^5 CFU/mL (final concentration) in terms of Escherichia coli. Each peptide was prepared and added to a microplate or test tubes so as to attain a final concentration of 10 μg/mL, and the bacterial suspension was added thereto. The plate was incubated at 37° C. for 3 hours, and the amount of ATP in the culture media was measured. Relative values were calculated by comparison with the negative control, and these values were regarded as the viability.

[9] = test system: Enterobacter cloacae JCM 1232; experiment: Antibacterial activity, ATP assay (BacTiter-Glo); type: cell-based
Experimental: as §4, §5, §6

[10] = test system: Klebsiella pneumoniae JCM 1662; experiment: Antibacterial activity, ATP assay (BacTiter-Glo); type: cell-based
Experimental: as §4, §5, §6

[11] = test system: Enterobacter aerogenes JCM 1235; experiment: Antibacterial activity, ATP assay (BacTiter-Glo); type: cell-based
Experimental: as §4, §5, §6

[12] = test system: Staphylococcus epidermidis; experiment: MIC measurement, broth microdilution; type: cell-based; details: Staphylococcus epidermidis; 37° C. for 20 hours; tested twice, first/second value where not matched
Experimental: as §1, §2

[13] = test system: human vascular endothelial cells and fibroblast cells; type: cell-based; details: polypeptide 10 μg/mL, Day 11 of culture
Experimental: Using AG30-5C as a positive control, the angiogenesis-inducing activity of SR-1 and SR-2 was measured. More concretely, using an angiogenesis kit (Angiogenesis Kit, KZ-1000, KURABO […] LTD.), the ability of the polypeptides to form lumina was evaluated. As a negative control, polypeptide-free group (Control) was used.
Each polypeptide was added to a special medium for angiogenesis (KURABO […] LTD., KZ-1500) such that the concentration thereof was 10 μg/mL. Cells were cultured at 37° C. under 5% CO2 in a 24-well plate using the special media to which the polypeptide was added. The medium was replaced with a medium containing the same polypeptide on Day 4, Day 7 and Day 9 of culture. On Day 11 from the beginning of the culture, the medium was removed and staining was performed using a kit for staining lumina (for CD31 antibody staining) according to the following procedure.
The primary antibody (mouse anti-human CD31 antibody) was 4000-fold diluted with a blocking solution (Dulbecco's phosphate buffered saline (PBS(−)) containing 1% BSA). To each well, 0.5 mL of this primary antibody solution was added, and the plate was incubated for 60 minutes at 37° C. After the completion of the incubation, each well was washed totally 3 times with 1 mL of the blocking solution.
Then, 0.5 mL of a secondary antibody solution (goat anti-mouse IgG/alkaline phosphatase conjugate) 500-fold diluted with the blocking solution was added to each well. The plate was incubated for 60 minutes at 37° C., and thereafter each well was washed 3 times with 1 mL of distilled water. During that period, 2 tablets of BCIP/NBT were dissolved into distilled water, and the obtained solution was filtered through a filter having a pore size of 0.2 μm to prepare a substrate solution. To each well, 0.5 mL of the prepared BCIP/NBT substrate solution was added, and the plate was incubated at 37° C. until the lumina turned to deep purple (typically for 5-10 minutes). After the completion of the incubation, each well was washed 3 times with 1 mL of distilled water. After washing, the washing solution was removed by aspiration, and the plate was left to stand and dry naturally. After drying, photographs of each well were taken under a microscope.
Each of the obtained images was quantified using an angiogenesis quantification software. Computer analysis was carried out on various parameters. And, on the basis of its scale, the lengths of formed lumina observed in each visual field were measured, and the effect of adding the polypeptides compared with Control was evaluated.

[14] = Table 5, peptides 10 μg/mL, 37° C. for 3 hours, ATP amount relative to negative control
[15] = Table 7, mean values, peptides 10 μg/mL, TOB 1.0, OX 1.0, MEPM 0.5 μg/mL, 37° C. 3 hours, relative to negative control
[16] = Table 7, mean values, peptides 10 μg/mL, TOB 4.0, OX 4.0, MEPM 0.5 μg/mL, 37° C. 3 hours, relative to negative control

Compound	MIC [1] [µg/mL]	MIC (MSSA (clinical strain 1)) [µg/mL]	MIC [2] [µg/mL]	MIC (MRSA (clinical strain 1)) [µg/mL]	MIC [5] [µg/mL]	MIC [6] [µg/mL]	MIC [7] [µg/mL]	MIC [12] [µg/mL]	The Length of Lumina (Percentage when taking Control as 100) ([13]; Table 4) [%]	The Length of Lumina (Percentage when taking Control as 100) ([13]; Table 3) [%]	also measured
C[C@@H](O)[C@H]1C(=O)N2C(C(=O)O)=C(S[C@@H]3CN[C@H](C(=O)N(C)C)C3)[C@H](C)[C@H]12 [MEPM, meropenem]	8 (≈ 20.9 µM)	< 4	< 4	< 4	< 4	< 4	< 4	0.03 to 0.12 (≈ 0.0782 to 0.313 µM)			MIC, MSSA (clinical strain 2) (MSSA (clinical strain 2)): 4/8; MIC, MRSA (clinical strain 2) (MRSA (clinical strain 2)): 8/16; viability at 0.5 µg/mL ([3]; Staphylococcus aureus, ATCC29213, 3 h, read-out: Viability, Staphylococcus aureus): 89.8%; viability at 0.5 µg/mL ([4]; Pseudomonas aeruginosa, ATCC27853, 3 h, read-out: Viability, Pseudomonas aeruginosa): 19.3%; viability at 0.5 µg/mL ([8]; Escherichia coli, ATCC25922, 3 h, read-out: Viability, Escherichia coli): 12.4%; viability at 0.5 µg/mL ([9]; Enterobacter cloacae, JCM1232, 3 h, read-out: Viability, Enterobacteria (1)): 3.8%; viability at 0.5 µg/mL ([10]; Klebsiella pneumoniae, JCM1662, 3 h, read-out: Viability, Klebsiella pneumoniae): 9.2%; viability at 0.5 µg/mL ([11]; Klebsiella aerogenes, JCM1235, 3 h, read-out: Viability, Enterobacteria (2)): 1.7%
NC[C@H]1O[C@H](O[C@H]2[C@H](O)[C@@H](O[C@H]3O[C@H](CO)[C@@H](O)[C@H](N)[C@H]3O)[C@H](N)C[C@@H]2N)[C@H](N)C[C@@H]1O [TOB, tobramycin]	< 4	< 4	> 16	> 16	< 4	< 4	< 4	0.12 to 1 (≈ 0.257 to 2.14 µM)			MIC (MSSA (clinical strain 2); Staphylococcus aureus, MSSA): < 4 µg/mL; MIC (MRSA (clinical strain 2); Staphylococcus aureus, MRSA): > 16 µg/mL; Viability (%) Staphylococcus aureus [3, 14]: 3.5%; Viability, Staphylococcus aureus ([3]; Table 7, mean values, peptides 10 μg/mL, TOB 1.0, OX 0.125, MEPM 0.5 μg/mL, 37° C. 3 hours, relative to negative control): 3.4; Viability (%) Pseudomonas aeruginosa [4, 14]: 1.8%; Viability, Pseudomonas aeruginosa [4, 15]: 1.5; Viability, Escherichia coli [8, 15]: 4.1; Viability, Enterobacteria (1) [9, 16]: 2.9; Viability, Klebsiella pneumoniae [10, 16]: 4.6; Viability, Enterobacteria (2) [11, 16]: 0.7
ARLDVASEFRKKWNKWALSR-amide (ARLDVASEFRKKWNKWALSR-NH2; listed as Homo sapiens) [PAMP]									124.6		
ELRFLHRLKRRLRKRLKRKLR-NH2 [SR-2]										124.6	
MLKLIFLHRLKRMRKRLKRK [SR-1]										124.3	
MLKLIFLHRLKRMRKRLKRKLRFWHRKRYK [AG30-5C]									165.7	119.1	
